PMC11554305, “Functional identification of soluble uric acid as an endogenous inhibitor of CD38” (eLife, 2024)

Legend:
[1] = biological target: T1, recombinant human CD38 (hCD38) (Homo sapiens, UniProt P28907); test: CD38 hydrolase activity, recombinant hCD38 (ε-NAD+ substrate); format: biochemical; conditions: sUA 0–500 μM, Figure 1B
T1 construct: the commercial recombinant hCD38 without a transmembrane region was partially used in this study; purchased Sino Biological 10818-H08H
T1 sequence (P28907 43-300 limits assumed): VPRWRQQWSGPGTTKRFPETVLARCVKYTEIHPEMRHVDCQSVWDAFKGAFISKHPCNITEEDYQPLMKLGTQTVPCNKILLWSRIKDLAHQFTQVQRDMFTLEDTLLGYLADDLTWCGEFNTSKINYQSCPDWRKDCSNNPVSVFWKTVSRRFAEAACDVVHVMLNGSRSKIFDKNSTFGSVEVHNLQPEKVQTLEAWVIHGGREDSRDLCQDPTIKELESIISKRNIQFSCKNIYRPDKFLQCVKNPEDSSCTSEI
Method: The hydrolase activity of CD38 was measured according to a previous report ([de Oliveira et al., 2018]) with minor modifications. CD38 hydrolase activity was measured using 50 μM ε-NAD^+ as a substrate in hydrolase reaction buffer (250 mM sucrose, 40 mM Tris-HCl, pH 7.4). Briefly, cells or tissues were directly homogenized in blank reaction buffer on ice, and recombinant hCD38 was diluted in blank reaction buffer for subsequent assays. The tissue homogenates were centrifuged to collect the supernatant for enzyme assays. The loading volume of enzyme was 4–30 μL, the total volume of the reaction system was 3 mL. To detect enzyme inhibition, except when specified, the ligands were directly dissolved in hydrolase reaction buffer before pH adjustment, after which, the pH was immediately adjusted to 7.4. All reaction buffers, with or without ligands, were freshly prepared before each assay. For measurement of hydrolase activity, 3 mL reaction buffer containing enzyme, ε-NAD^+, and ligands at indicated concentrations was maintained at 37°C with constant stirring.
The reaction buffer for hydrolase or cyclase assays was excited at 300 nm, and fluorescence emission was measured every second at 410 nm by Shimazu RF-6000 spectrofluorometer. Hydrolase or cyclase activity was calculated from the linear portion of the time course by fitting a linear function to the data points recorded within 5 min.

THP-1 cells = test: Intracellular NAD+ assay in THP-1 cells; format: cell-based, human; conditions: sUA 0–10 mg/dL pre-incubation 2 hr, then stimulation 6 hr
Method: Naïve THP-1 cells were pre-incubated with sUA (0–10 mg/dL) in RPMI-1640 medium containing 1% FBS for 2 hr, then the cells were washed twice with sterile PBS and stimulated with MSU crystals, cLPS, zymosan, or ATP for 6 hr. Subsequently, the cells were washed twice with sterile PBS, and then a total of 100 μL 5% ice-cold PCA was used to extract NAD^+ from cells in each well and medium as mentioned above.
As mentioned above, samples (cells, tissues, blood, or reaction buffer) were treated with ice-cold PCA, after extraction and centrifugation, the collected supernatant was appropriately diluted in 5% ice-cold PCA when applicable, and then was vortexed for 30 s and centrifuged at 15,000 rpm, 4°C for 5 min. Afterward, 30 μL supernatant was added into 200 μL 5 mM ammonium formate containing internal standards at indicated concentrations. Then, all the samples were vortexed for 30 s and centrifuged at 15,000 rpm, 4°C for 5 min again, the final supernatant was used for subsequent measurement. All the samples after handling were immediately analyzed in this study without freezing and thawing.
(§1) The LC-MS/MS system consisted of a triple quadrupole LCMS-8050 (Shimadzu) and an LC-30A system (Shimadzu). […] NAD^+ and NMN were measured independently in this study, as their peaks were hardly separated within a short time.

recombinant hCD38 = biological target: T2, recombinant hCD38 (Homo sapiens, UniProt P28907); test: Metabolic assay of NMN (degradation by recombinant hCD38); format: biochemical; conditions: NMN 200 μM, hCD38 20 ng/mL, 6 hr
T2 construct: the commercial recombinant hCD38 without a transmembrane region was partially used in this study; purchased Sino Biological 10818-H08H
T2 sequence (P28907 43-300 limits assumed): T1 sequence (P28907 43-300 limits assumed)
Method: To prepare the reaction buffer, sUA was directly dissolved in blank RPMI-1640 medium by addition of NaOH, and the pH was immediately adjusted by HCl. After pH adjustment, the medium containing sUA was filtered by 0.2 μm filter and diluted as indicated. The medium containing 20 ng/mL recombinant hCD38 was then placed in a cell incubator. The reaction was started with the addition of NMN (final concentration was 200 μM). After incubation for 6 hr, 20 μL medium was transferred into 180 μL 5% ice-cold PCA, then vortexed for 30 s and centrifuged at 15,000 rpm, 4°C for 10 min. The supernatant was stored at –80°C until further handling for NMN measurement (see LC-MS/MS analysis).
As mentioned above, samples (cells, tissues, blood, or reaction buffer) were treated with ice-cold PCA, after extraction and centrifugation, the collected supernatant was appropriately diluted in 5% ice-cold PCA when applicable, and then was vortexed for 30 s and centrifuged at 15,000 rpm, 4°C for 5 min. […] All the samples after handling were immediately analyzed in this study without freezing and thawing.
as §1

[2] = Solubility and crystal precipitation in solution; format: physicochemical
Method: Guanosine was dissolved in DMSO and diluted in the reaction buffer for subsequent assays.
MSU crystals were prepared by the recrystallization of oversaturated sUA according to a previous report ([Martinon et al., 2006]). Improper preparation of sUA solution may introduce crystals to cause false-positive or false-negative results. […] In this study, the sUA solution was prepared according to an improved protocol ([Ma et al., 2020]). […] Then, sUA solution was immediately filtered by 0.2 μm filters and diluted to experimental concentration (up to 10 mg/dL, 595 μM) for cell experiments. […]

neutrophils = system: neutrophils; parameters: method as in Ma et al., 2022; conditions: sUA 595 μM; ref Ma et al., 2022; cited from earlier work

Ki [1]: 65.7 µM
NMN degradation by recombinant hCD38 (recombinant hCD38): directly inhibited NMN degradation
Crystal precipitation in stock solution ([2]; 5 mg/mL in NaOH without pH adjustment, 2-month storage at 4°C): Visible crystals were observed
Crystal precipitation in high-concentration stock solutions ([2]; long-term storage at 4°C): promoted crystal precipitation
Compound: O=c1[nH]c(=O)c2[nH]c(=O)[nH]c2[nH]1 [sUA, uric acid]
Intracellular NAD+ (THP-1 cells): boosted intracellular NAD^+
Crystal precipitation in stock solution ([2]; 50 mg/mL in NaOH without pH adjustment): Crystals were immediately precipitated after dissolution
Neutrophil response to IL-8 (neutrophils): inhibits neutrophils in response to IL-8
